According to patent US20250361230A1, “LATS Inhibitors and Uses Thereof” (The USA, as Represented by the Secretary, Dept. of Heath …, priority 2022, published 2025):
Like-named read-outs stand apart in the source and are kept apart here.

Molecular target: T1, AKT Kinase-NanoLuc fusion in HEK-293 cells (Homo sapiens, UniProt P31749)
T1 construct: host or cells: HEK-293
Assay: NanoBRET target engagement assay in transfected HEK-293 cells, AKT
Type: cell-based
Conditions: HEK-293 cells
How it was run: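 HEK-293 cells transiently transfected with kinase-NanoLuc fusion plasmid for 22-24 h, then incubated with compound and NanoBRET tracer for 1 hour at 37° C. After substrate plus extracellular NanoLuc inhibitor addition, 460 and 600 nm emissions read; no-tracer-corrected BRET ratio used to derive IC50 values.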

[1] = Table 32, NanoBRET, read-out: AKT (Cellular) IC50

T1 sequence (P31749 whole entry, the tested form may be a part): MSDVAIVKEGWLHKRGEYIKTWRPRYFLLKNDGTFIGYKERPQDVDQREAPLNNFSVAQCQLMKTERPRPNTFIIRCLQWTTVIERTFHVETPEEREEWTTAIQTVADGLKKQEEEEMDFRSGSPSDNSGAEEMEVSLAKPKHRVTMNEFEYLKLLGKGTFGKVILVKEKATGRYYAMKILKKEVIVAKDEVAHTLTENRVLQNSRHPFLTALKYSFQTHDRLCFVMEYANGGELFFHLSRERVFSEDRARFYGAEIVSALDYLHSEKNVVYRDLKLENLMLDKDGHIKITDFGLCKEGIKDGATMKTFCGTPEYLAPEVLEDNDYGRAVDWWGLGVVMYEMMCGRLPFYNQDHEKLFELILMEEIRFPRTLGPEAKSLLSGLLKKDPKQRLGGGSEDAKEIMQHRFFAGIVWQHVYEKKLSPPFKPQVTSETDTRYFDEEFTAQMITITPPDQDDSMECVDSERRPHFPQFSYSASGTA

In the case of NCC(O)(c1ccc(Cl)cc1)c1ccc(-c2ccnc3[nH]cc(Br)c23)nc1 (stereo not drawn) [Compound 1011, 2-amino-1-(6-(3-bromo-1H-pyrrolo[2,3-b]pyridin-4-yl)pyridin-3-yl)-1-(4-chlorophenyl)ethan-1-ol], the IC50 [1] is reported as 76.3 nM.
C[C@@H]1CNC[C@H](C)[C@@]1(O)c1ccc(-c2ccnc3[nH]cc(F)c23)cc1F [Compound 7, (3S,4s,5R)-4-(2-fluoro-4-(3-fluoro-1H-pyrrolo[2,3-b]pyridin-4-yl)phenyl)-3,5-dimethyl piperidin-4-ol] was tested, and the IC50 (Table 28, NanoBRET, read-out: AKT1 (Cellular) IC50) was 8640 nM.
NCC(O)(c1ccc(Cl)cc1)c1ccc(-c2ccnc3[nH]ccc23)cc1 (stereo not drawn) [Compound 1001, 1-(4-(1H-pyrrolo[2,3-b]pyridin-4-yl)phenyl)-2-amino-1-(4-chlorophenyl)ethan-1-ol] gave an IC50 [1] of 42 nM.
